Laboratory results as given in patent US9695155B2, “Herbicidal substituted pyrimidinyloxy benzene compounds” (E. I. DU PONT DE NEMOURS AND COMPANY, priority 2013, dated 2017).

Experiments:
lambsquarters = test: Test C postemergence; assay type: in vivo, Chenopodium album
How it was run: (§1)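 Whole-plant greenhouse test with surfactant-containing solvent formulation, applied preemergence to sown loam–sand pots or postemergence to 2–18 cm plants. Scored by eye 13 to 15 days on, 0–100 scale.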

pigweed = test: Test C preemergence; assay type: in vivo, Amaranthus retroflexus
How it was run: as §1

waterhemp = test: Test C postemergence; assay type: in vivo, Amaranthus rudis
How it was run: as §1

giant foxtail = test: Test C postemergence; assay type: in vivo, Setaria faberii
How it was run: as §1

sedge, umbrella = test: Test B flooded paddy test; assay type: in vivo, Cyperus difformis; details: Flood, 250 g ai/ha, 0 to 100 scale where 0 is no effect and 100 is complete control
How it was run: (§2)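 Flooded to 3 cm at the 2-leaf stage, pots received compound through the paddy water and were kept at that depth under greenhouse conditions. After 13–15 days, effect was rated by eye relative to controls, 0 = none and 100 = complete control.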

barnyardgrass [1] = test: Test B flooded paddy test; assay type: in vivo, Echinochloa crus-galli; details: Flood, 250 g ai/ha, 0 to 100 scale where 0 is no effect and 100 is complete control
How it was run: as §2

chickweed = test: Test C postemergence; assay type: in vivo, Stellaria media
How it was run: as §1

wheat, winter = test: Test C postemergence; assay type: in vivo, Triticum aestivum
How it was run: as §1

corn = test: Test C postemergence; assay type: in vivo, Zea mays
How it was run: as §1

large (Lg) crabgrass [2] = test: Test C preemergence; assay type: in vivo, Digitaria sanguinalis
How it was run: as §1

barnyardgrass [3] = test: Test C postemergence; assay type: in vivo, Echinochloa crus-galli
How it was run: as §1

large (Lg) crabgrass [4] = test: Test C postemergence; assay type: in vivo, Digitaria sanguinalis
How it was run: as §1

[5] = Postemergence, 31 g ai/ha, scale 0 to 100 (0 no effect, 100 complete control), 13 to 15 days
[6] = Postemergence, 62 g ai/ha, scale 0 to 100 (0 no effect, 100 complete control)
[7] = 16 g ai/ha, preemergence, scale 0 to 100 (0 no effect, 100 complete control)
[8] = 62 g ai/ha, preemergence, scale 0 (no effect) to 100 (complete control)
[9] = 125 g ai/ha, preemergence, scale 0 (no effect) to 100 (complete control)
[10] = Preemergence, 31 g ai/ha, scale 0 to 100, 0 no effect, 100 complete control
[11] = 16 g ai/ha, postemergence, visual rating, scale 0 to 100 (0 no effect, 100 complete control), 13 to 15 days

FC(F)(F)Sc1cnn(-c2ccccc2Oc2ncc(Cl)cn2)c1 [Compound 132, 5-chloro-2-[2-[4-(trifluoromethylthio)-1H-pyrazol-1-yl]phenoxy]pyrimidine]
pest or weed control at 16 g/ha (lambsquarters; Chenopodium album, post-emergence, 16 g ai/ha, postemergence, 0 is no effect, 100 is complete control, read-out: Plant response rating (0 to 100), Lambsquarters): 10%
pest or weed control at 125 g/ha (lambsquarters; Chenopodium album, post-emergence, 125 g ai/ha, postemergence, visual rating, scale 0 to 100 (0 no effect, 100 complete control), read-out: Plant response rating, Lambsquarters): 50%
pest or weed control at 62 g/ha (lambsquarters; Chenopodium album, post-emergence, Postemergence, 62 g ai/ha, scale 0 to 100 (0 no effect, 100 complete control), read-out: Plant response rating, Lambsquarters): 60%
pest or weed control at 16 g/ha (pigweed; Amaranthus retroflexus, pre-emergence, 16 g ai/ha, preemergence, scale 0 to 100 (0 no effect, 100 complete control), read-out: Pigweed plant response rating): 30%
pest or weed control at 62 g/ha (pigweed; Amaranthus retroflexus, pre-emergence, 62 g ai/ha, preemergence, scale 0 (no effect) to 100 (complete control), read-out: Pigweed plant response rating): 70%
pest or weed control at 125 g/ha (pigweed; Amaranthus retroflexus, pre-emergence, 125 g ai/ha, preemergence, scale 0 (no effect) to 100 (complete control), read-out: Pigweed plant response rating): 100%
pest or weed control at 31 g/ha (pigweed; Amaranthus retroflexus, pre-emergence, Preemergence, 31 g ai/ha, scale 0 to 100, 0 no effect, 100 complete control, read-out: Plant response rating, Pigweed): 45%
pest or weed control at 16 g/ha (waterhemp; Amaranthus tuberculatus, post-emergence, 16 g ai/ha, postemergence, 0 is no effect, 100 is complete control, read-out: Plant response rating (0 to 100), Waterhemp): 45%
pest or weed control at 125 g/ha (waterhemp; Amaranthus tuberculatus, post-emergence, 125 g ai/ha, postemergence, visual rating, scale 0 to 100 (0 no effect, 100 complete control), read-out: Plant response rating, Waterhemp): 75%
pest or weed control at 62 g/ha (waterhemp; Amaranthus tuberculatus, post-emergence, Postemergence, 62 g ai/ha, scale 0 to 100 (0 no effect, 100 complete control), read-out: Plant response rating, Waterhemp): 65%
pest or weed control at 16 g/ha (giant foxtail; Setaria faberi, post-emergence, 16 g ai/ha, postemergence, 0 is no effect, 100 is complete control, read-out: Plant response rating (0 to 100), Foxtail, Giant): 0%
pest or weed control at 125 g/ha (giant foxtail; Setaria faberi, post-emergence, 125 g ai/ha, postemergence, visual rating, scale 0 to 100 (0 no effect, 100 complete control), read-out: Plant response rating, Foxtail, Giant): 10%
pest or weed control at 62 g/ha (giant foxtail; Setaria faberi, post-emergence, Postemergence, 62 g ai/ha, scale 0 to 100 (0 no effect, 100 complete control), read-out: Plant response rating, Foxtail, Giant): 5%
pest or weed control at 250 g/ha (sedge, umbrella; Cyperus difformis, read-out: Plant response rating, Sedge, Umbrella): 0%
pest or weed control at 250 g/ha (barnyardgrass [1]; Echinochloa crus-galli, read-out: Plant response rating, Barnyardgrass): 0%
pest or weed control at 16 g/ha (chickweed; Stellaria media, post-emergence, 16 g ai/ha, postemergence, 0 is no effect, 100 is complete control, read-out: Plant response rating (0 to 100), Chickweed): 10%
pest or weed control at 125 g/ha (chickweed; Stellaria media, post-emergence, 125 g ai/ha, postemergence, visual rating, scale 0 to 100 (0 no effect, 100 complete control), read-out: Plant response rating, Chickweed): 40%
pest or weed control at 62 g/ha (chickweed; Stellaria media, post-emergence, Postemergence, 62 g ai/ha, scale 0 to 100 (0 no effect, 100 complete control), read-out: Plant response rating, Chickweed): 30%
plant injury at 16 g/ha (wheat, winter; Triticum aestivum, post-emergence, 16 g ai/ha, postemergence, 0 is no effect, 100 is complete control, read-out: Plant response rating (0 to 100), Wheat): 0%
plant injury at 125 g/ha (wheat, winter; Triticum aestivum, post-emergence, 125 g ai/ha, postemergence, visual rating, scale 0 to 100 (0 no effect, 100 complete control), read-out: Plant response rating, Wheat): 5%
plant injury at 62 g/ha (wheat, winter; Triticum aestivum, post-emergence, Postemergence, 62 g ai/ha, scale 0 to 100 (0 no effect, 100 complete control), read-out: Plant response rating, Wheat): 0%
plant injury at 16 g/ha (corn; Zea mays, post-emergence, 16 g ai/ha, postemergence, 0 is no effect, 100 is complete control, read-out: Plant response rating (0 to 100), Corn): 5%
Corn plant response rating (crop injury, 0 = no effect, 100 = complete kill) at 125 g/ha (corn; Zea mays, post-emergence, 125 g ai/ha, postemergence, visual rating, scale 0 to 100 (0 no effect, 100 complete control)): 10%
Corn plant response rating (crop injury, 0 = no effect, 100 = complete kill) at 62 g/ha (corn; Zea mays, post-emergence, Postemergence, 62 g ai/ha, scale 0 to 100 (0 no effect, 100 complete control)): 5%
pest or weed control at 16 g/ha (large (Lg) crabgrass [2]; Digitaria sanguinalis, pre-emergence, 16 g ai/ha, preemergence, scale 0 to 100 (0 no effect, 100 complete control), read-out: Crabgrass, Large plant response rating): 65%
pest or weed control at 62 g/ha (large (Lg) crabgrass [2]; Digitaria sanguinalis, pre-emergence, 62 g ai/ha, preemergence, scale 0 (no effect) to 100 (complete control), read-out: Crabgrass, Large plant response rating): 98%
pest or weed control at 125 g/ha (large (Lg) crabgrass [2]; Digitaria sanguinalis, pre-emergence, 125 g ai/ha, preemergence, scale 0 (no effect) to 100 (complete control), read-out: Crabgrass, Large plant response rating): 100%
pest or weed control at 31 g/ha (large (Lg) crabgrass [2]; Digitaria sanguinalis, pre-emergence, Preemergence, 31 g ai/ha, scale 0 to 100, 0 no effect, 100 complete control, read-out: Plant response rating, Crabgrass, Large): 85%
pest or weed control at 16 g/ha (barnyardgrass [3]; Echinochloa crus-galli, post-emergence, 16 g ai/ha, postemergence, 0 is no effect, 100 is complete control, read-out: Plant response rating (0 to 100), Barnyardgrass): 0%
pest or weed control at 125 g/ha (barnyardgrass [3]; Echinochloa crus-galli, post-emergence, 125 g ai/ha, postemergence, visual rating, scale 0 to 100 (0 no effect, 100 complete control), read-out: Plant response rating, Barnyardgrass): 5%
pest or weed control at 31 g/ha (barnyardgrass [3]; Echinochloa crus-galli, post-emergence, Postemergence, 31 g ai/ha, scale 0 to 100 (0 no effect, 100 complete control), 13 to 15 days, read-out: Plant response rating, Barnyardgrass): 0%
pest or weed control at 62 g/ha (barnyardgrass [3]; Echinochloa crus-galli, post-emergence, Postemergence, 62 g ai/ha, scale 0 to 100 (0 no effect, 100 complete control), read-out: Plant response rating, Barnyardgrass): 5%
pest or weed control at 16 g/ha (large (Lg) crabgrass [4]; Digitaria sanguinalis, post-emergence, 16 g ai/ha, postemergence, 0 is no effect, 100 is complete control, read-out: Plant response rating (0 to 100), Crabgrass, Large): 5%
pest or weed control at 125 g/ha (large (Lg) crabgrass [4]; Digitaria sanguinalis, post-emergence, 125 g ai/ha, postemergence, visual rating, scale 0 to 100 (0 no effect, 100 complete control), read-out: Plant response rating, Crabgrass, Large): 10%
pest or weed control at 62 g/ha (large (Lg) crabgrass [4]; Digitaria sanguinalis, post-emergence, Postemergence, 62 g ai/ha, scale 0 to 100 (0 no effect, 100 complete control), read-out: Plant response rating, Crabgrass, Large): 5%

CCOc1cnn(-c2c(C#N)cccc2Oc2ncc(F)cn2)c1 [Compound 89]
Plant response rating (0 to 100), Lambsquarters (lambsquarters; 125 g ai/ha, postemergence): 55
Plant response rating, Lambsquarters (lambsquarters; [5]): 30
Plant response rating, Lambsquarters (lambsquarters; [6]): 65
Pigweed plant response rating (pigweed; [7]): 55
Pigweed plant response rating (pigweed; [8]): 100
Pigweed plant response rating (pigweed; [9]): 100
Plant response rating, Pigweed (pigweed; [10]): 90
Plant response rating (0 to 100), Waterhemp (waterhemp; 125 g ai/ha, postemergence): 60
Plant response rating, Waterhemp (waterhemp; [5]): 40
Plant response rating, Waterhemp (waterhemp; [6]): 30
Foxtail, Giant plant response rating (giant foxtail; [11]): 5
Plant response rating (0 to 100), Foxtail, Giant (giant foxtail; 125 g ai/ha, postemergence): 10
Plant response rating, Foxtail, Giant (giant foxtail; [5]): 5
Plant response rating, Foxtail, Giant (giant foxtail; [6]): 5
Plant response rating, Sedge, Umbrella (sedge, umbrella): 85
Plant response rating, Barnyardgrass (barnyardgrass [1]): 10
Chickweed plant response rating (chickweed; [11]): 20
Plant response rating (0 to 100), Chickweed (chickweed; 125 g ai/ha, postemergence): 60
Plant response rating, Chickweed (chickweed; [5]): 50
Plant response rating, Chickweed (chickweed; [6]): 50
Plant response rating (0 to 100), Wheat (wheat, winter; 125 g ai/ha, postemergence): 5
Plant response rating, Wheat (wheat, winter; [5]): 0
Plant response rating, Wheat (wheat, winter; [6]): 0
Corn plant response rating (corn; [11]): 5
Plant response rating (0 to 100), Corn (corn; 125 g ai/ha, postemergence): 5
Plant response rating, Corn (corn; [5]): 5
Plant response rating, Corn (corn; [6]): 5
Crabgrass, Large plant response rating (large (Lg) crabgrass [2]; [7]): 80
Crabgrass, Large plant response rating (large (Lg) crabgrass [2]; [8]): 100
Crabgrass, Large plant response rating (large (Lg) crabgrass [2]; [9]): 100
Plant response rating, Crabgrass, Large (large (Lg) crabgrass [2]; [10]): 100
Barnyardgrass plant response rating (barnyardgrass [3]; [11]): 0
Plant response rating (0 to 100), Barnyardgrass (barnyardgrass [3]; 125 g ai/ha, postemergence): 5
Plant response rating, Barnyardgrass (barnyardgrass [3]; [5]): 5
Plant response rating, Barnyardgrass (barnyardgrass [3]; [6]): 5
Crabgrass, Large plant response rating (large (Lg) crabgrass [4]; [11]): 5
Plant response rating (0 to 100), Crabgrass, Large (large (Lg) crabgrass [4]; 125 g ai/ha, postemergence): 5
Plant response rating, Crabgrass, Large (large (Lg) crabgrass [4]; [5]): 5
Plant response rating, Crabgrass, Large (large (Lg) crabgrass [4]; [6]): 5
